{
  "source": "patent US20260317374A1",
  "about": "“Carrier Peptide Fragment and Use Thereof” (TOAGOSEI CO., LTD., priority 2022, published 2026)",
  "tested_on": "NSC-34 cells (mouse motor neuron-like hybrid cell line)",
  "test": "Cell membrane permeability of sample in NSC-34 cells by flow cytometry",
  "assay_type": "cell-based",
  "details": "for median fluorescence intensity (MFI): 10 μM sample (FAM concentration 10 μM), 0.5% DMSO, 20 hours at 37° C., 5% CO2, detector FL2",
  "protocol": "In Example 1, a construct shown in Table 1 was prepared as a sample 1. Specifically, a construct formed of a synthetic peptide with the amino acid sequence set forth in SEQ ID No.: 1, in which an α-amino group of a lysine residue of an N-terminus is acetylated, and FAM (C21H12O7: 5(6)-carboxyfluorescein, molecular weight 376.3, excitation wavelength 495 nm, fluorescence wavelength 520 nm) corresponding to fluorescent dye bonded to the C-terminus of the synthetic peptide was prepared. The construct was diluted in dimethyl sulfoxide (DMSO) to prepare a sample solution 1 with a sample concentration of 2 mM.\nAs the eukaryotic cells, NSC-34 cells (mouse motor neuron-like hybrid cell line) were used and the cell membrane permeability of the sample 1 was evaluated. In Example 1, the prepared sample solution 1 was used, and in Example 2, the FAM solution was used.\nThe NSC-34 cell was cultured in 10% fetal bovine serum (FBS)-containing Dulbecco's modified Eagle's medium (DMEM (Cat No. 044-29765, manufactured by FUJIFILM Wako Pure Chemical Corporation)), which is a culture medium.\nThe NSC-34 cell that adhered to a culture plate was cleaned with PBS and then, a 0.25%-trypsin/EDTA solution was added thereto, and incubation was performed for three minutes at 37° C. After the incubation, the aforementioned 10% FBS-containing DMEM was added to deactivate trypsin and then, five-minute centrifugal separation was performed at 150×g to precipitate the cells. After the supernatant generated by the centrifugal separation was removed, the 10% FBS-containing DMEM was added to the precipitate (cell pellet) to prepare a cell suspension of about 1×10^5 cells/mL. The cell suspension was added by 1 mL to a well of a commercially available six-hole (well) plate (manufactured by AGC TECHNO GLASS Co., Ltd.) so as to seed the cell (about 1×10^5 cells/well). In addition, the 2 mM sample solution 1 was diluted with the 10% FBS-containing DMEM to prepare the sample solution 1 in which the concentration of the sample 1 was 20 μM. Then, 1 mL of the 20 μM sample solution 1 was added to the well (that is, so that the concentration of the sample 1 became […] and the DMSO concentration became 0.5% in the culture solution in the well). After that, the cell was incubated for 20 hours at 37° C. under a 5% CO2 condition.\nAfter the 20-hour incubation, the culture supernatant was removed from the well and the cells in the well were cleaned twice with 1 mL of PBS. Next, 100 μL of the 0.25% trypsin/EDTA solution was added to the well and the incubation was performed for three minutes at 37° C. After the incubation, 900 µL of the 10% FBS-containing DMEM was added to the well to deactivate the trypsin. Subsequently, the cell suspension in the well was transferred to a tube and the cells were collected. After that, pre-washing was performed additionally, so that the cells remaining in the well were collected in the tube. This tube was subjected to five-minute centrifugal separation at 4° C. under a condition of 210×g. After the centrifugal separation, the supernatant was removed and the precipitate (cell pellet) was suspended (cleaned) with 1 mL of PBS, which was followed by the centrifugal separation under the same condition as that described above. […]\nRegarding the obtained cells (cell pellet), the cell membrane permeability of the sample 1 was analyzed using a flow cytometer. […]",
  "note": "FAM = 5(6)-carboxyfluorescein",
  "data": [
    {"substance": "SEQ ID No.: 1: carrier peptide fragment; synthetic peptide with amino acid sequence KFRAQRRW", "values": [
      {"measurement": "cell membrane permeability of carrier peptide fragment", "setting": "concluded from the FAM construct (Example 1 vs Example 2)", "value": "achieves the cell membrane permeability"}
    ]},
    {"substance": "5(6)-carboxyfluorescein [Example 2, reference compound]", "values": [
      {"measurement": "median fluorescence intensity (MFI)", "value": 7.58}
    ]},
    {"substance": "Example 1: synthetic peptide of SEQ ID No.: 1 with N-terminal lysine α-amino group acetylated and FAM bonded to the C-terminus (Ac-KFRAQRRW-{FAM})", "values": [
      {"measurement": "median fluorescence intensity (MFI)", "value": 15.8},
      {"measurement": "histogram position (flow cytometer, FIG. 1)", "setting": "Example 1 compared to Example 2 (FAM), 20 hours", "value": "shifted to the right side compared to the histogram according to Example 2"},
      {"measurement": "cell membrane permeability", "setting": "construct vs FAM alone, FIG. 1", "value": "higher cell membrane permeability than FAM alone"}
    ]}
  ]
}
